#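 Assay format: 96-well plates, 48-hour exposure. GI50: concentration for 50% inhibition of growth.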 Activity calls are given as the source filed them. No stated cut-off is given here; in the data, active = GI50 up to about 1.1 µM and inactive = higher.
# Columns and labels:
# Experiment in all cases: NCI tumour cell line growth inhibition, 48 h
# [1] = tested on: HCT-15
# [2] = tested on: IGROV-1
# [3] = tested on: RXF 393
# [4] = tested on: SNB-75
# [5] = tested on: OVCAR-3
# [6] = tested on: UO-31
# [7] = tested on: HOP-62
# [8] = tested on: RPMI-8226
# [9] = tested on: OVCAR-5
# [10] = tested on: A498
# [11] = tested on: HCT-116
# [12] = tested on: Malme-3M
# [13] = tested on: SW-620
# [14] = tested on: SF-539
# [15] = tested on: MOLT-4
# [16] = tested on: MDA-MB-435
# [17] = tested on: SF-268
# [18] = tested on: NCI/ADR-RES
# [19] = tested on: HOP-92
SMILES,GI50 [1],GI50 [2],GI50 [3],GI50 [4],GI50 [5],GI50 [6],GI50 [7],GI50 [8],GI50 [9],GI50 [10],GI50 [11],GI50 [12],GI50 [13],GI50 [14],GI50 [15],GI50 [16],GI50 [17],GI50 [18],GI50 [19]
Cc1[nH]c2ccccc2c1CC/C(=N\Nc1ccccc1)c1ccccc1,> 100 µM,> 100 µM (inactive),> 100 µM (inactive),28.7 µM (inactive),> 100 µM (inactive),> 100 µM (inactive),> 100 µM (inactive),> 100 µM (inactive),> 100 µM (inactive),> 100 µM (inactive),> 100 µM (inactive),> 100 µM (inactive),> 100 µM (inactive),> 100 µM (inactive),> 100 µM (inactive),–,–,–,–
O=c1cc(CNC2CCCC2)[nH]c(=O)[nH]1,> 100 µM,> 100 µM (inactive),> 100 µM (inactive),> 100 µM (inactive),> 100 µM (inactive),> 100 µM (inactive),> 100 µM (inactive),> 100 µM (inactive),> 100 µM (inactive),> 100 µM (inactive),> 100 µM (inactive),> 100 µM (inactive),> 100 µM (inactive),> 100 µM (inactive),> 100 µM (inactive),> 100 µM (inactive),> 100 µM (inactive),> 100 µM (inactive),–
C#CCOCC12C=CC(O1)C1C(=O)N(C)C(=O)C12 (configuration not stated),> 100 µM,> 100 µM (inactive),> 100 µM (inactive),> 100 µM (inactive),> 100 µM (inactive),> 100 µM (inactive),> 100 µM (inactive),> 100 µM (inactive),> 100 µM (inactive),> 100 µM (inactive),> 100 µM (inactive),> 100 µM (inactive),> 100 µM (inactive),> 100 µM (inactive),> 100 µM (inactive),> 100 µM (inactive),> 100 µM (inactive),> 100 µM (inactive),–
CCC1OC2(C)CC(C#N)(C#N)C1(C#N)C(=N)O2 (configuration not stated),–,> 100 µM (inactive),> 100 µM (inactive),> 100 µM (inactive),> 100 µM (inactive),> 100 µM (inactive),–,–,> 100 µM (inactive),> 100 µM (inactive),> 100 µM (inactive),> 100 µM (inactive),> 100 µM (inactive),> 100 µM (inactive),> 100 µM (inactive),> 100 µM (inactive),> 100 µM (inactive),–,> 100 µM (inactive)
CS(=O)(=O)CCC(N)P(=O)(O)O (configuration not stated),> 100 µM,> 100 µM (inactive),–,> 100 µM (inactive),> 100 µM (inactive),> 100 µM (inactive),> 100 µM (inactive),> 100 µM (inactive),> 100 µM (inactive),–,> 100 µM (inactive),> 100 µM (inactive),> 100 µM (inactive),–,> 100 µM (inactive),> 100 µM (inactive),> 100 µM (inactive),> 100 µM (inactive),> 100 µM (inactive)
N=C(N)N/N=C(/CCN1CCCC1)CC(c1ccccc1)c1c(O)c2ccccc2oc1=O (configuration not stated),–,> 100 µM (inactive),> 100 µM (inactive),> 100 µM (inactive),> 100 µM (inactive),–,> 100 µM (inactive),> 100 µM (inactive),–,–,> 100 µM (inactive),> 100 µM (inactive),> 100 µM (inactive),> 100 µM (inactive),–,–,> 100 µM (inactive),–,16.7 µM (inactive)
CN1CCN(C(=S)N(C(=O)c2cccs2)c2ccccc2)CC1,> 100 µM,> 100 µM (inactive),> 100 µM (inactive),56 µM (inactive),> 100 µM (inactive),> 100 µM (inactive),–,> 100 µM (inactive),94.6 µM (inactive),–,–,> 100 µM (inactive),> 100 µM (inactive),–,> 100 µM (inactive),> 100 µM (inactive),> 100 µM (inactive),–,> 100 µM (inactive)
CCCC(C)c1c(Cl)nc(Cl)nc1Cl (configuration not stated),7.38 µM,14.7 µM (inactive),10.6 µM (inactive),14.5 µM (inactive),9.57 µM (inactive),19.5 µM (inactive),8.36 µM (inactive),5.53 µM (inactive),21.2 µM (inactive),–,1.73 µM (inactive),8.45 µM (inactive),4.23 µM (inactive),5.73 µM (inactive),1.49 µM (inactive),3.75 µM (inactive),10.3 µM (inactive),33.4 µM (inactive),–
Cc1[nH]n(-c2nc(-c3ccccc3)cc(=O)[nH]2)c(=O)c1CCO,> 100 µM,> 100 µM (inactive),> 100 µM (inactive),–,> 100 µM (inactive),> 100 µM (inactive),> 100 µM (inactive),> 100 µM (inactive),> 100 µM (inactive),–,> 100 µM (inactive),> 100 µM (inactive),> 100 µM (inactive),> 100 µM (inactive),63.5 µM (inactive),> 100 µM (inactive),> 100 µM (inactive),71.1 µM (inactive),> 100 µM (inactive)

# Source: ChEMBL document CHEMBL1201862, “PubChem BioAssay data set” (2004)
